Reference: US20250084084A1, “Crystalline form of (2R)-2-(5-fluoro-2-methoxypyridin-4-yl)-1-[(2S)-7-methyl-6-(pyrimidin-2-yl)-3,4-dihydro-1H-spiro[1,8-naphthyridine-2,3-pyrrolidin]-1-yl]propan-1-one” (Pfizer Inc., priority 2020, published 2025)

The compounds below were run against α-melanocyte-stimulating hormone receptor (hMC4R) (Homo sapiens (Human), UniProt P32245) (assay: In vitro binding affinity assay using hMC4R (radioligand competition binding, [125I]-(Nle4, D-Phe7)-α-MSH)). Details: geometric mean, read-out: Ki (nM) geometric.
Chain of α-melanocyte-stimulating hormone receptor (hMC4R) (P32245 whole entry): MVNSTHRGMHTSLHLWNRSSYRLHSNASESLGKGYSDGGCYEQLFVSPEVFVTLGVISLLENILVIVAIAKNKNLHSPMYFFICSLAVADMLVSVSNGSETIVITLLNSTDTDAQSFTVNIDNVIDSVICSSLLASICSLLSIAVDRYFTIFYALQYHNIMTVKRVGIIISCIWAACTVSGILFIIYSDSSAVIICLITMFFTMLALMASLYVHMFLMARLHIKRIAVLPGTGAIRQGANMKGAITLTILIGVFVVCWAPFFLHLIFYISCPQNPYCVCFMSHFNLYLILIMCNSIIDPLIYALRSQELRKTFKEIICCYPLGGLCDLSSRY
Outline: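 Membranes from CHO cells stably expressing hMC4R (2 μg/well) incubated 2 h RT with [125I]-NDP-α-MSH and compound (300 nM-0.01 nM, 1% DMSO); 2 μM α-MSH defined nonspecific binding. Filtration and scintillation counting; Ki from IC50 via Cheng-Prusoff.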

Row | Compound | Ki [nM]
1 | Cc1nc2c(cc1-c1nc(C(F)F)n(C)n1)CC[C@@]1(CCN(C(=O)Cc3ccc(F)c(F)c3)C1)N2 [Example 121, 1-{(2S)-6-[5-(difluoromethyl)-1-methyl-1H-1,2,4-triazol-3-yl]-7-methyl-3,4-dihydro-1H-spiro[1,8-naphthyridine-2,3′-pyrrolidin]-1′-yl}-2-(3,4-difluorophenyl)ethan-1-one] | 0.49
2 | COc1cc([C@@H](C)C(=O)N2CC[C@@]3(CCc4cc(-c5nc(OC)n(C)n5)c(C)nc4N3)C2)c(F)cn1 (single isomer, unassigned) [Example 112] | 0.78
3 | Cc1nc2c(cc1-c1nnn(C)n1)CC[C@@]1(CCN(C(=O)C(C)c3ccc(C(F)(F)F)cc3)C1)N2 (single isomer, unassigned) [Example 109] | 0.73
4 | COc1cc([C@@H](C)C(=O)N2CC[C@@]3(CCc4cc(-c5cn(C(F)F)c(C)n5)c(C)nc4N3)C2)c(F)cn1 [Example 138, (2R)-1-{(2S)-6-[1-(difluoromethyl)-2-methyl-1H-imidazol-4-yl]-7-methyl-3,4-dihydro-1H-spiro[1,8-naphthyridine-2,3′-pyrrolidin]-1′-yl}-2-(5-fluoro-2-methoxypyridin-4-yl)propan-1-one] | 0.9
5 | COc1cc([C@@H](C)C(=O)N2CC[C@@]3(CCc4cc(-c5nnn(C)n5)c(C)nc4N3)C2)nc(C(F)F)n1 (single isomer, unassigned) [Example 127] | 0.97
6 | COc1cc([C@@H](C)C(=O)N2CC[C@@]3(CCc4cc(-c5nc(C(F)F)n(C)n5)c(C)nc4N3)C2)c(F)cn1 [Example 122, (2R)-1-{(2S)-6-[5-(difluoromethyl)-1-methyl-1H-1,2,4-triazol-3-yl]-7-methyl-3,4-dihydro-1H-spiro[1,8-naphthyridine-2,3′-pyrrolidin]-1′-yl}-2-(5-fluoro-2-methoxypyridin-4-yl)propan-1-one] | 0.49

Other lines, results leading:

Row | Ki [nM] | Compound
7 | 110 | COc1cc([C@@H](C)C(=O)N2CC[C@@]3(CCc4cc(-c5ncc(C(F)(F)F)s5)c(C)nc4N3)C2)c(F)cn1 [Example 201, (2R)-2-(5-fluoro-2-methoxypyridin-4-yl)-1-{(2S)-7-methyl-6-[5-(trifluoromethyl)-1,3-thiazol-2-yl]-3,4-dihydro-1H-spiro[1,8-naphthyridine-2,3′-pyrrolidin]-1′-yl}propan-1-one]
8 | 2.5 | COc1cc([C@@H](C)C(=O)N2CC[C@@]3(CCc4cc(-c5cccc(-c6nnc(C)o6)n5)c(C)nc4N3)C2)c(F)cn1 [Example 152, (2R)-2-(5-fluoro-2-methoxypyridin-4-yl)-1-{(2S)-7-methyl-6-[6-(5-methyl-1,3,4-oxadiazol-2-yl)pyridin-2-yl]-3,4-dihydro-1H-spiro[1,8-naphthyridine-2,3′-pyrrolidin]-1′-yl}propan-1-one]
9 | 8.2 | COc1cc([C@@H](C)C(=O)N2CC[C@@]3(CCc4cc(-c5nc(C(C)C)ns5)c(C)nc4N3)C2)c(F)cn1 [Example 162, (2R)-2-(5-fluoro-2-methoxypyridin-4-yl)-1-{(2S)-7-methyl-6-[3-(propan-2-yl)-1,2,4-thiadiazol-5-yl]-3,4-dihydro-1H-spiro[1,8-naphthyridine-2,3′-pyrrolidin]-1′-yl}propan-1-one]
10 | 8.1 | COc1cc([C@@H](C)C(=O)N2CC[C@@]3(CCc4cc(-c5ccnc(N6CCOCC6)n5)c(C)nc4N3)C2)c(F)cn1 [Example 196, (2R)-2-(5-fluoro-2-methoxypyridin-4-yl)-1-{(2S)-7-methyl-6-[2-(morpholin-4-yl)pyrimidin-4-yl]-3,4-dihydro-1H-spiro[1,8-naphthyridine-2,3′-pyrrolidin]-1′-yl}propan-1-one]
11 | 92 | Cc1nc2c(cc1-c1ncccn1)CC[C@@]1(CCN(C(=O)C(C)c3ccnc(OC(F)F)c3)C1)N2 (single isomer, unassigned) [Example 194]
12 | 0.41 | COc1cc([C@@H](C)C(=O)N2CC[C@@]3(CCc4cc(-c5nc(C)n(C(F)F)n5)c(C)nc4N3)C2)c(F)cn1 [Example 188, (2R)-1-{(2S)-6-[1-(difluoromethyl)-5-methyl-1H-1,2,4-triazol-3-yl]-7-methyl-3,4-dihydro-1H-spiro[1,8-naphthyridine-2,3′-pyrrolidin]-1′-yl}-2-(5-fluoro-2-methoxypyridin-4-yl)propan-1-one]
13 | 4.7 | COc1cc([C@@H](C)C(=O)N2CC[C@@]3(CCc4cc(-c5cccc(C(F)(F)F)n5)c(C)nc4N3)C2)c(F)cn1 [Example 178, (2R)-2-(5-fluoro-2-methoxypyridin-4-yl)-1-{(2S)-7-methyl-6-[6-(trifluoromethyl)pyridin-2-yl]-3,4-dihydro-1H-spiro[1,8-naphthyridine-2,3′-pyrrolidin]-1′-yl}propan-1-one]
14 | 45 | COc1cc([C@@H](C)C(=O)N2CC[C@@]3(CCc4cc(-c5ccc(-c6noc(C)n6)cc5)c(C)nc4N3)C2)c(F)cn1 [Example 175, (2R)-2-(5-fluoro-2-methoxypyridin-4-yl)-1-{(2S)-7-methyl-6-[4-(5-methyl-1,2,4-oxadiazol-3-yl)phenyl]-3,4-dihydro-1H-spiro[1,8-naphthyridine-2,3′-pyrrolidin]-1′-yl}propan-1-one]
15 | 2.5 | COc1cc([C@@H](C)C(=O)N2CC[C@@]3(CCc4cc(-c5cccc(OC(F)F)n5)c(C)nc4N3)C2)c(F)cn1 [Example 198, (2R)-1-{(2S)-6-[6-(difluoromethoxy)pyridin-2-yl]-7-methyl-3,4-dihydro-1H-spiro[1,8-naphthyridine-2,3′-pyrrolidin]-1′-yl}-2-(5-fluoro-2-methoxypyridin-4-yl)propan-1-one]
16 | 86 | COc1cc([C@@H](C)C(=O)N2CC[C@@]3(CCc4cc(-c5nnc(N6CCCCC6)s5)c(C)nc4N3)C2)c(F)cn1 [Example 168, (2R)-2-(5-fluoro-2-methoxypyridin-4-yl)-1-{(2S)-7-methyl-6-[5-(piperidin-1-yl)-1,3,4-thiadiazol-2-yl]-3,4-dihydro-1H-spiro[1,8-naphthyridine-2,3′-pyrrolidin]-1′-yl}propan-1-one]
17 | 6.3 | COc1cc([C@@H](C)C(=O)N2CC[C@@]3(CCc4cc(-c5nc(C)cc(C)n5)c(C)nc4N3)C2)c(F)cn1 [Example 184, (2R)-1-[(2S)-6-(4,6-dimethylpyrimidin-2-yl)-7-methyl-3,4-dihydro-1H-spiro[1,8-naphthyridine-2,3′-pyrrolidin]-1′-yl]-2-(5-fluoro-2-methoxypyridin-4-yl)propan-1-one]
18 | 4 | COc1cc([C@@H](C)C(=O)N2CC[C@@]3(CCc4cc(-c5cc(C)nc(C(C)C)n5)c(C)nc4N3)C2)c(F)cn1 [Example 183, (2R)-2-(5-fluoro-2-methoxypyridin-4-yl)-1-{(2S)-7-methyl-6-[6-methyl-2-(propan-2-yl)pyrimidin-4-yl]-3,4-dihydro-1H-spiro[1,8-naphthyridine-2,3′-pyrrolidin]-1′-yl}propan-1-one]

Same assay, conditions: geometric mean, read-out: Ki (nM) geometric mean

Row | Ki [nM] | Compound
19 | 35 | COc1cc([C@@H](C)C(=O)N2CC[C@@]3(CCc4cc(-c5ncc(C(F)(F)F)cc5F)c(C)nc4N3)C2)c(F)cn1 [Example 68, (2R)-2-(5-fluoro-2-methoxypyridin-4-yl)-1-{(2S)-6-[3-fluoro-5-(trifluoromethyl)pyridin-2-yl]-7-methyl-3,4-dihydro-1H-spiro[1,8-naphthyridine-2,3′-pyrrolidin]-1′-yl}propan-1-one]
20 | > 2200 | Cc1ccc2c(n1)N[C@@]1(CC2)CCN(C(=O)Cc2ccc(F)cc2)C1 (single isomer, unassigned) [Example 88, 2-(4-fluorophenyl)-1-(7-methyl-3,4-dihydro-1H-spiro[1,8-naphthyridine-2,3′-pyrrolidin]-1′-yl)ethan-1-one]
21 | 0.93 | Cc1nc2c(cc1-c1ncccn1)CC[C@@]1(CCN(C(=O)Cc3cc(F)c(F)c(F)c3)C1)N2 [Example 54, 1-[(2S)-7-methyl-6-(pyrimidin-2-yl)-3,4-dihydro-1H-spiro[1,8-naphthyridine-2,3′-pyrrolidin]-1′-yl]-2-(3,4,5-trifluorophenyl)ethan-1-one]
22 | 3.5 | COc1cc([C@](C)(F)C(=O)N2CC[C@@]3(CCc4cc(-c5ncccn5)c(C)nc4N3)C2)ccn1 (single isomer, unassigned) [Example 46]
23 | 1.2 | COc1cc([C@@H](C)C(=O)N2CC[C@@]3(CCc4cc(-c5nc(C(F)(F)F)n(C)n5)c(C)nc4N3)C2)c(Cl)cn1 (single isomer, unassigned) [Example 94]
24 | 0.67 | COc1cc([C@@H](C)C(=O)N2CC[C@@]3(CCc4cc(-c5ncccn5)c(C)nc4N3)C2)cc(OC)n1 (single isomer, unassigned) [Example 83]

Row | Compound | Ki [nM]
25 | [2H]C([2H])([2H])Oc1cc([C@@H](C)C(=O)N2CC[C@@]3(CCc4cc(-c5ncccn5)c(C)nc4N3)C2)c(F)cn1 [Example 74, (2R)-2-{5-fluoro-2-[(^2H3)methyloxy]pyridin-4-yl}-1-[(2S)-7-methyl-6-(pyrimidin-2-yl)-3,4-dihydro-1H-spiro[1,8-naphthyridine-2,3′-pyrrolidin]-1′-yl]propan-1-one] | 1.3
26 | COc1cc([C@@H](C)C(=O)N2CC[C@@]3(CCc4cc(-c5ncccn5)c(C)nc4N3)C2)c(Cl)cn1 [Example 15, (2R)-2-(5-Chloro-2-methoxypyridin-4-yl)-1-[(2S)-7-methyl-6-(pyrimidin-2-yl)-3,4-dihydro-1H-spiro[1,8-naphthyridine-2,3′-pyrrolidin]-1′-yl]propan-1-one] | 0.25
27 | COc1cc([C@H](C)C(=O)N2CC[C@@]3(CCc4cc(-c5ncccn5)c(C)nc4N3)C2)c(F)cn1 [Example 28, (2S)-2-(5-fluoro-2-methoxypyridin-4-yl)-1-[(2S)-7-methyl-6-(pyrimidin-2-yl)-3,4-dihydro-1H-spiro[1,8-naphthyridine-2,3′-pyrrolidin]-1′-yl]propan-1-one] | 160
28 | COc1cc([C@@H](C)C(=O)N2CC[C@@]3(CCc4cc(-c5nnn(C)n5)c(C)nc4N3)C2)c(F)cn1 [Example 13, (2R)-2-(5-fluoro-2-methoxypyridin-4-yl)-1-[(2S)-7-methyl-6-(2-methyl-2H-tetrazol-5-yl)-3,4-dihydro-1H-spiro[1,8-naphthyridine-2,3′-pyrrolidin]-1′-yl]propan-1-one] | 0.6
